How the values were obtained:
Assay in all cases: cells
[1] = test system: SN12C; settings: Homo sapiens, 48 h; for CC50: read-out: LC50
[2] = test system: COLO 205; settings: Homo sapiens, COLO 205, 48 h; for CC50: read-out: LC50
[3] = test system: U251; settings: Homo sapiens, U-251, 48 h; for GI50: U251, 48 h; for CC50: read-out: LC50
[4] = test system: CAKI-1; settings: Homo sapiens, CAKI-1, 48 h; for CC50: read-out: LC50
[5] = test system: T-47D; settings: Homo sapiens, T47D, 48 h; for CC50: read-out: LC50
[6] = test system: A498; settings: Homo sapiens, A498, 48 h; for CC50: read-out: LC50
[7] = test system: LOX IMVI; settings: Homo sapiens, 48 h; for CC50: read-out: LC50, LOX IMVI, 48 h
[8] = test system: A549/ATCC; settings: Homo sapiens, A549, 48 h; for CC50: read-out: LC50
[9] = test system: SNB-19; settings: Homo sapiens, SNB-19, 48 h; for CC50: read-out: LC50
[10] = test system: HCC-2998; settings: Homo sapiens, HCC 2998, 48 h; for CC50: read-out: LC50
[11] = test system: MDA-MB-468; settings: Homo sapiens, MDA-MB-468, 48 h; for CC50: read-out: LC50
[12] = test system: NCI-H460; settings: Homo sapiens, NCI-H460, 48 h; for CC50: read-out: LC50
[13] = test system: CCRF-CEM; settings: Homo sapiens, 48 h; for CC50: read-out: LC50
[14] = test system: UACC-62; settings: Homo sapiens, UACC-62, 48 h; for CC50: read-out: LC50
[15] = test system: M14; settings: Homo sapiens, M14, 48 h; for CC50: read-out: LC50
[16] = test system: SNB-75; settings: Homo sapiens, SNB-75, 48 h; for CC50: read-out: LC50
[17] = test system: MDA-MB-231/ATCC; settings: Homo sapiens, MDA-MB-231, 48 h; for CC50: read-out: LC50
[18] = test system: HCT-116; settings: Homo sapiens, HCT-116, 48 h; for CC50: read-out: LC50
[19] = test system: UO-31; settings: Homo sapiens, UO-31, 48 h; for CC50: read-out: LC50
[20] = test system: 786-0; settings: Homo sapiens, 786-0, 48 h; for CC50: read-out: LC50
[21] = test system: HT29; settings: Homo sapiens, HT-29, 48 h; for CC50: read-out: LC50
[22] = test system: SK-MEL-28; settings: Homo sapiens, SK-MEL-28, 48 h; for CC50: read-out: LC50
[23] = test system: SF-539; settings: Homo sapiens, SF-539, 48 h; for CC50: read-out: LC50, SF-539, 48 h
[24] = test system: K-562; settings: Homo sapiens, K562, 48 h; for GI50: K-562, 48 h; for CC50: read-out: LC50
[25] = test system: NCI-H522; settings: Homo sapiens, NCI-H522, 48 h; for CC50: read-out: LC50
[26] = test system: PC-3; settings: Homo sapiens, PC-3, 48 h; for CC50: read-out: LC50
[27] = test system: KM12; settings: Homo sapiens, KM12, 48 h; for CC50: read-out: LC50
[28] = test system: EKVX; settings: Homo sapiens, 48 h; for CC50: read-out: LC50
[29] = test system: SK-MEL-2; settings: Homo sapiens, SK-MEL-2, 48 h; for CC50: read-out: LC50
[30] = test system: SK-MEL-5; settings: Homo sapiens, SK-MEL-5, 48 h; for CC50: read-out: LC50
[31] = test system: HL-60(TB); settings: Homo sapiens, HL-60, 48 h; for CC50: read-out: LC50
[32] = test system: SF-268; settings: Homo sapiens, SF-268, 48 h; for CC50: read-out: LC50
[33] = test system: UACC-257; settings: Homo sapiens, UACC-257, 48 h; for CC50: read-out: LC50
[34] = test system: OVCAR-3; settings: Homo sapiens, OVCAR-3, 48 h; for CC50: read-out: LC50
[35] = test system: HOP-92; settings: Homo sapiens, HOP-92, 48 h; for CC50: read-out: LC50
[36] = test system: HS 578T; settings: Homo sapiens, 48 h; for CC50: read-out: LC50
[37] = test system: MOLT-4; settings: Homo sapiens, MOLT-4, 48 h; for CC50: read-out: LC50

## COc1ccc(/C=C/C(=O)c2ccc(S(=O)(=O)NCCNc3nc(Nc4ccc(F)cc4)nc(N(C)C)n3)cc2)cc1 [24c]
[1]
  GI50: 3.6 µM
  CC50: 44.5 µM
[2]
  GI50: 3.46 µM
  CC50: 45.7 µM
[3]
  GI50: 6.7 µM
  CC50: 55.3 µM
[4]
  GI50: 3.34 µM
  CC50: > 100 µM
[5]
  GI50: 3.78 µM
  CC50: > 100 µM
[6]
  GI50: 10 µM
  CC50: 87.8 µM
[7]
  GI50: 3.23 µM
  CC50: 34 µM
[8]
  GI50: 6.54 µM
  CC50: > 100 µM
[9]
  GI50: 5.58 µM
  CC50: > 100 µM
[10]
  GI50: 5.47 µM
  CC50: 43.2 µM
[11]
  GI50: 2.57 µM
  CC50: 52.6 µM
[12]
  GI50: 4.11 µM
  CC50: > 100 µM
[13]
  GI50: 4.09 µM
  CC50: > 100 µM
[14]
  GI50: 4.79 µM
  CC50: 51.6 µM
[15]
  GI50: 4.27 µM
  CC50: 99.6 µM
[16]
  GI50: 3.57 µM
  CC50: > 100 µM
[17]
  GI50: 2.73 µM
  CC50: 63 µM
[18]
  GI50: 1.86 µM
  CC50: 7.07 µM
[19]
  GI50: 3.78 µM
  CC50: > 100 µM
[20]
  GI50: 6.33 µM
  CC50: > 100 µM
[21]
  GI50: 1.83 µM
  CC50: 7.63 µM
[22]
  GI50: 5.23 µM
  CC50: 47.3 µM
[23]
  GI50: 10.3 µM
  CC50: 51.2 µM
[24]
  GI50: 3.99 µM
  CC50: > 100 µM
[25]
  GI50: 2.55 µM
  CC50: 67.1 µM
[26]
  GI50: 3.5 µM
  CC50: > 100 µM
[27]
  GI50: 4.01 µM
  CC50: 72 µM
[28]
  GI50: 4.12 µM
  CC50: > 100 µM
[29]
  GI50: 8.1 µM
  CC50: 53.4 µM
[30]
  GI50: 3.5 µM
  CC50: 36.4 µM
[31]
  GI50: 3.6 µM
  CC50: > 100 µM
[32]
  GI50: 4.43 µM
  CC50: > 100 µM
[33]
  GI50: 13.3 µM
  CC50: > 100 µM
[34]
  GI50: 5.01 µM
  CC50: 59.4 µM
[35]
  GI50: 3.25 µM
  CC50: > 100 µM
[36]
  GI50: 4.68 µM
  CC50: > 100 µM
[37]
  GI50: 3.12 µM
  CC50: > 100 µM

## COc1cc(/C=C/C(=O)c2cc(OC)c(OC)c(OC)c2)ccc1Oc1nc(NCCO)nc(N2CCOCC2)n1 [20d]
[1]
  GI50: 1.79 µM
  CC50: 23.3 µM
[2]
  GI50: 2.1 µM
  CC50: 9.18 µM
[3]
  GI50: 1.62 µM
  CC50: 6.02 µM
[4]
  GI50: 2.43 µM
  CC50: 30.4 µM
[5]
  GI50: 3.12 µM
  CC50: 39.9 µM
[6]
  GI50: 3.58 µM
  CC50: 37 µM
[7]
  GI50: 0.642 µM
  CC50: 4.99 µM
[8]
  GI50: 2.78 µM
  CC50: 42.2 µM
[9]
  GI50: 2.31 µM
  CC50: 29.9 µM
[10]
  GI50: 2.23 µM
  CC50: 7.97 µM
[11]
  GI50: 1.71 µM
  CC50: 14.3 µM
[12]
  GI50: 1.87 µM
  CC50: 8.69 µM
[13]
  GI50: 2.38 µM
  CC50: > 100 µM
[14]
  GI50: 1.69 µM
  CC50: 6.03 µM
[15]
  GI50: 2.38 µM
  CC50: 37.9 µM
[16]
  GI50: 1.79 µM
  CC50: 24.2 µM
[17]
  GI50: 2.86 µM
  CC50: 35.4 µM
[18]
  GI50: 1.53 µM
  CC50: 6.78 µM
[19]
  GI50: 1.66 µM
  CC50: 6.5 µM
[20]
  GI50: 3.46 µM
  CC50: 43.6 µM
[21]
  GI50: 2.83 µM
  CC50: 32.9 µM
[22]
  GI50: 1.92 µM
  CC50: 7.53 µM
[23]
  GI50: 1.88 µM
  CC50: 13 µM
[24]
  GI50: 1.91 µM
  CC50: > 100 µM
[25]
  GI50: 1.56 µM
  CC50: 6.43 µM
[26]
  GI50: 3.11 µM
  CC50: 43.2 µM
[27]
  GI50: 2.99 µM
  CC50: > 100 µM
[28]
  GI50: 2.81 µM
  CC50: 36.6 µM
[29]
  GI50: 2.76 µM
  CC50: 33.1 µM
[30]
  GI50: 1.77 µM
  CC50: 6.19 µM
[31]
  GI50: 1.54 µM
  CC50: > 100 µM
[32]
  GI50: 3.02 µM
  CC50: 71.8 µM
[33]
  GI50: 2.83 µM
  CC50: 36.7 µM
[34]
  GI50: 3.2 µM
  CC50: 34.4 µM
[35]
  GI50: 2.75 µM
  CC50: 35.4 µM
[36]
  GI50: 3.62 µM
  CC50: > 100 µM
[37]
  GI50: 1.98 µM
  CC50: > 100 µM

## CN(C)c1nc(NCCNS(=O)(=O)c2ccc(C(=O)/C=C/c3ccccc3)cc2)nc(Nc2ccc(F)cc2)n1 [24a]
[1]
  GI50: 8.2 µM
  CC50: 46.2 µM
[2]
  GI50: 5.46 µM
  CC50: 56.7 µM
[3]
  GI50: 10.4 µM
  CC50: 57.8 µM
[4]
  GI50: 4.75 µM
  CC50: 52.6 µM
[5]
  GI50: 3.45 µM
  CC50: 41.7 µM
[6]
  GI50: 11.6 µM
  CC50: 49.7 µM
[7]
  GI50: 2.47 µM
  CC50: 27.4 µM
[8]
  GI50: 8.33 µM
  CC50: 73.5 µM
[9]
  GI50: 10.4 µM
  CC50: 51 µM
[10]
  GI50: 2.35 µM
  CC50: 17.9 µM
[11]
  GI50: 2.84 µM
  CC50: 37.6 µM
[12]
  GI50: 4.34 µM
  CC50: 56.5 µM
[13]
  GI50: 6.59 µM
  CC50: > 100 µM
[14]
  GI50: 6.68 µM
  CC50: 46.9 µM
[15]
  GI50: 5.98 µM
  CC50: 51.5 µM
[16]
  GI50: 3.23 µM
  CC50: > 100 µM
[17]
  GI50: 4.84 µM
  CC50: 45.8 µM
[18]
  GI50: 1.72 µM
  CC50: 6.1 µM
[19]
  GI50: 4.6 µM
  CC50: 41.9 µM
[20]
  GI50: 11.2 µM
  CC50: 56.9 µM
[21]
  GI50: 3.08 µM
  CC50: 73.5 µM
[22]
  GI50: 10.2 µM
  CC50: 48.4 µM
[23]
  GI50: 12 µM
  CC50: 50.2 µM
[24]
  GI50: 3.34 µM
  CC50: > 100 µM
[25]
  GI50: 5.47 µM
  CC50: 53.6 µM
[26]
  GI50: 4.39 µM
  CC50: > 100 µM
[27]
  GI50: 3.74 µM
  CC50: 54 µM
[28]
  GI50: 4.48 µM
  CC50: 40.6 µM
[29]
  GI50: 10.6 µM
  CC50: 55.4 µM
[30]
  GI50: 4.7 µM
  CC50: 41.6 µM
[31]
  GI50: 3.88 µM
  CC50: > 100 µM
[32]
  GI50: 5.65 µM
  CC50: 65.2 µM
[33]
  GI50: 12.6 µM
  CC50: 61 µM
[34]
  GI50: 8.59 µM
  CC50: 48.7 µM
[35]
  GI50: 8.1 µM
  CC50: 60.1 µM
[36]
  GI50: 7.39 µM
  CC50: > 100 µM
[37]
  GI50: 3.22 µM
  CC50: > 100 µM
